Measured values: US8183236B2, “Compounds with HIV-1 integrase inhibitory activity and use thereof as anti-HIV/AIDS therapeutics” (University of Southern California, priority 2007, dated 2012)

Key:
[1] = molecular target: T1, HIV-1 integrase (wild-type IN) (Human immunodeficiency virus type 1 group M subtype B, UniProt P12497); assay: HIV-1 integrase strand transfer assay (32P-labeled 21-mer, gel); assay type: biochemical
Outline: (§1)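 Wild-type IN at 200 nM preincubated with inhibitor 30 min at 30 °C in MnCl2 (7.5 mM), pH 7.2 MOPS buffer with 10% DMSO, then 20 nM 5′-32P-labeled 21-mer duplex added for 1 h. 19-mer and strand-transfer products resolved on denaturing 20% gels by phosphorimaging; IC50 from log concentration versus % inhibition.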

[2] = molecular target: T1, HIV-1 integrase (wild-type IN); assay: HIV-1 integrase 3′-processing assay (32P-labeled 21-mer, gel); assay type: biochemical
Outline: as §1

[3] = wild-type IN 200 nM, 7.5 mM MnCl2, read-out: Inhibition of IN Catalytic Activities IC50 (μM) Strand Transfer
[4] = wild-type IN 200 nM, 7.5 mM MnCl2, read-out: Inhibition of IN Catalytic Activities IC50 (μM) 3′-processing
[5] = unit inferred, read-out: IN inhibition activity Strand transfer
[6] = unit inferred, read-out: IN inhibition activity 3′-processing

Compound	IC50 [1, 3] [µM]	IC50 [2, 4] [µM]	IC50 [1, 5] [µM]	IC50 [2, 6] [µM]
CCn1cc(C(=O)O)c(=O)c2cc(F)c(N3CCN(C(=S)NC(=O)C45CC6CC(CC(C6)C4)C5)CC3)cc21 [ROM3A8]	74	78		
Cn1c(=O)c(C(=O)Nc2ccccc2S(N)(=O)=O)c(O)c2ccccc21 [XR8]	39	50		
Cc1ccc(-n2c(SCC(=O)NNC(=O)c3ccccc3O)nnc2-c2ccccc2O)cc1 [AS9]			3 ± 1	5 ± 2
COc1ccc(/C=N/NC(=O)CSc2nnc(-c3ccccc3)n2-c2ccccc2)c(C(=O)O)c1OC [OT10]			> 100	> 100
O=C(O)c1cccc(-c2ccc(/C=N/Nc3nc4ccccc4s3)o2)c1 [AV15A43]			24 ± 11	63 ± 7
